Experimental data from US10947237B2, “Antimicrobial compounds and methods of making and using the same” (BIOVERSYS AG, priority 2015, dated 2021).

Columns and labels:
[1] = test system: Eschericia coli (E. Coli) strain ATCC25922; assay: standard microdilution assay, minimum inhibitory concentration (MIC); type: cell-based; conditions: Escherichia coli
Outline: (§1)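 Compounds were scored +/− against a 16 µg/mL MIC cutoff, using CLSI-based microdilution with QC reference strains. The organisms were S. aureus 11540 and E. coli ATCC25922.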

[2] = test system: Staphylococcus aureus (S. aureus) 11540 strain; assay: as above; type: cell-based
Outline: as §1

| Compound | MIC ([1]; Table 2, strain ATCC25922) | MIC ([2]; Table 2, 11540 strain) | MIC ([1]; ATCC25922, Table 2a) | MIC ([2]; Table 2a) |
| --- | --- | --- | --- | --- |
| C[C@H](N)CCCc1cc(Cl)c(F)c(-c2cc3cn(-c4ccc([C@H]5CC(N)C[C@H](CCN)O5)cc4)c(=O)nc3[nH]2)c1 (stereo partly drawn) [Compound 127] | ≤ 16 µg/mL | ≤ 16 µg/mL | – | – |
| N=C(N)NCC[C@H]1CC(N)C[C@H](c2ccc(-n3cc4cc(C5CCNC5)[nH]c4nc3=O)cc2)O1 (stereo partly drawn) [Compound 121] | ≤ 16 µg/mL | > 16 µg/mL | – | – |
| N=C(N)NCC[C@@H]1CCC[C@@H](c2ccc(-n3cc4cc(CCNC5CCNCC5)[nH]c4nc3=O)cc2)N1 [Compound 101] | ≤ 16 µg/mL | ≤ 16 µg/mL | – | – |
| C[C@H](N)CCCc1cc(Cl)c(F)c(-c2cc3cn(-c4ccc([C@@H]5CC[C@H](CNC(=N)N)O5)cc4)c(=O)nc3[nH]2)c1 [Compound 70] | ≤ 16 µg/mL | ≤ 16 µg/mL | – | – |
| CC(=N)NCC[C@@H]1CCC[C@@H](c2ccc(-n3cc4cc(CCNC5CCNCC5)[nH]c4nc3=O)cc2)N1 [Compound 117] | ≤ 16 µg/mL | ≤ 16 µg/mL | – | – |
| C[C@H](N)CCCc1cc(Cl)c(F)c(-c2cc3cn(-c4ccc(CO[C@H](CO)CCNC(=N)N)cc4)c(=O)nc3[nH]2)c1 [Compound 59] | ≤ 16 µg/mL | ≤ 16 µg/mL | – | – |
| O=c1nc2[nH]c(CCNC3CCNCC3)cc2cn1-c1ccc([C@@H]2CCC[C@@H](CCc3ncc[nH]3)N2)cc1 [Compound 102] | ≤ 16 µg/mL | ≤ 16 µg/mL | – | – |
| C[C@H](N)CCCc1cc(Cl)c(F)c(-c2cc3cn(-c4ccc(CO[C@@H](CN)CCNC(=N)N)cc4)c(=O)nc3[nH]2)c1 [Compound 68] | ≤ 16 µg/mL | ≤ 16 µg/mL | – | – |
| COc1ncccc1NC[C@@H](CCNC(=N)N)NCc1ccc(-n2cc3cc(-c4cc(CCC[C@H](C)N)cc(Cl)c4F)[nH]c3nc2=O)cc1 [Compound 63] | ≤ 16 µg/mL | ≤ 16 µg/mL | – | – |
| N=C(N)NCC[C@@H]1C[C@H](CN)O[C@@H](c2ccc(-n3cc4cc(C5CCNC5)[nH]c4nc3=O)cc2)C1 (stereo partly drawn) [Compound 98] | > 16 µg/mL | > 16 µg/mL | – | – |
| CC(=N)NC[C@@H](CCNC(=N)N)NCc1ccc(-n2cc3cc(-c4cc(CCC[C@H](C)N)cc(Cl)c4F)[nH]c3nc2=O)cc1 [Compound 67] | ≤ 16 µg/mL | ≤ 16 µg/mL | – | – |
| C[C@H](N)CCCc1cc(Cl)c(F)c(-c2cc3cn(-c4ccc([C@@H]5CCC[C@@H](CCNC(=N)N)C5)cc4)c(=O)nc3[nH]2)c1 [Compound 34] | ≤ 16 µg/mL | ≤ 16 µg/mL | – | – |
| CC1=NC[C@@H](CCNC(=N)N)N1Cc1ccc(-n2cc3cc(-c4cc(CCC[C@H](C)N)cc(Cl)c4F)[nH]c3nc2=O)cc1 [Compound 77] | ≤ 16 µg/mL | ≤ 16 µg/mL | – | – |
| C[C@H](N)CCCc1cc(Cl)c(F)c(-c2cc3cn(-c4ccc(CN[C@H](CCNC(=N)N)CNc5cnccn5)cc4)c(=O)nc3[nH]2)c1 [Compound 48] | ≤ 16 µg/mL | ≤ 16 µg/mL | – | – |
| C[C@H](N)CCCc1cc(Cl)c(F)c(-c2cc3cn(-c4ccc(CO[C@@H](CF)CCNC(=N)N)cc4)c(=O)nc3[nH]2)c1 [Compound 135] | ≤ 16 µg/mL | ≤ 16 µg/mL | – | – |
| C[C@H](N)CCCc1cc(Cl)c(F)c(-c2cc3cn(-c4ccc([C@@H]5CCC[C@@H](CNCc6cn[nH]c6)N5)cc4)c(=O)nc3[nH]2)c1 [Compound 5] | ≤ 16 µg/mL | ≤ 16 µg/mL | – | – |
| C[C@H](N)CCCc1cc(Cl)c(F)c(-c2cc3cn(-c4ccc(CN[C@H](CCNC(=N)N)CNc5ccncc5)cc4)c(=O)nc3[nH]2)c1 [Compound 58] | ≤ 16 µg/mL | ≤ 16 µg/mL | – | – |
| C[C@H](N)CCCc1cc(Cl)c(F)c(-c2cc3cn(-c4ccc(CN[C@H](CCNC(=N)N)CNc5ccc[nH]c5=O)cc4)c(=O)nc3[nH]2)c1 [Compound 62] | ≤ 16 µg/mL | ≤ 16 µg/mL | – | – |
| C[C@H](N)CCCc1cc(Cl)c(F)c(-c2cc3cn(-c4ccc([C@H]5CC[C@H](CCNC(=N)N)O5)cc4)c(=O)nc3[nH]2)c1 [Compound 74] | ≤ 16 µg/mL | ≤ 16 µg/mL | – | – |
| N=C(N)NCC[C@H](CNC(=N)N)OCc1ccc(-n2cc3cc(-c4cc(CCC[C@@H](N)C5CC5)cc(Cl)c4F)[nH]c3nc2=O)cc1 [Compound 164] | – | – | ≤ 16 µg/mL | ≤ 16 µg/mL |
| N=C(N)NCC[C@H](CNC(=N)N)OCc1ccc(-n2cc3cc(-c4cc(CCC[C@@H](N)CO)cc(Cl)c4F)[nH]c3nc2=O)cc1 [Compound 163] | – | – | ≤ 16 µg/mL | ≤ 16 µg/mL |
| C[C@H](N)CCCc1cc(Cl)c(F)c(-c2cc3cn(-c4ccc(CN[C@H](CCNC(=N)N)CNc5nc6cnccc6o5)cc4)c(=O)nc3[nH]2)c1 [Compound 56] | ≤ 16 µg/mL | ≤ 16 µg/mL | – | – |
| C[C@H](N)CCCc1cc(Cl)c(F)c(-c2cc3cn(-c4ccc([C@@H]5N[C@@H](CCNC(=N)N)CCO5)cc4)c(=O)nc3[nH]2)c1 [Compound 32] | ≤ 16 µg/mL | ≤ 16 µg/mL | – | – |
| C[C@H](N)CCCc1cc(Cl)c(F)c(-c2cc3cn(-c4ccc([C@H]5CCC[C@H](CCNC6=NCCC6)N5)cc4)c(=O)nc3[nH]2)c1 [Compound 29] | ≤ 16 µg/mL | ≤ 16 µg/mL | – | – |
